The record followed here is patent US20240043435A1, “TYK-2 INHIBITOR” (BEIGENE, LTD., priority 2020, published 2024).

Structures are written as SMILES. pIC50: −log10 of the molar value.

Assay [1] deals with T1, TYK2-JH2 (aa 575-869, in-house) protein (Homo sapiens, UniProt P29597).
T1 construct: TYK2-JH2 (aa 575-869, in-house) protein; made in house
In words: TYK2-JH2 biochemical assay (HTRF probe displacement). As to conditions: Biochemical assay; read-out: TYK2-JH2 IC50. In kind it is binding. The method, boiled down: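 HTRF probe-displacement format: compound dilutions (10 points, 5-fold, from 500 uM in DMSO at 500×) were combined with 0.2 nM TYK2-JH2 protein for 0.5 h at room temperature in HEPES pH 7.5 buffer with MgCl2, BSA, DTT and Brij-35. Percent inhibition came from the 615/665 nm fluorescence ratio, fitted to a four-parameter logistic for IC50.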
In general terms: TR-FRET usually uses a lanthanide donor and a delayed reading to cut background.

In assay [2] the test system is JAK2, TYK2/p-STAT4 (Tyr693) activated by IL-12 in NK-92 cell line. The experiment in a line: IL-12-JAK2, TYK2/p-STAT4 (Tyr693) inhibition IC50 cellular assay. Format: cell-based. The note with it: for pIC50: NK92, Cellular assay, read-out: pSTAT4/IL-12 IC50; for Selectivity fold (TYK2/JAK2): Cellular assay, pSTAT5/GM-CSF IC50 vs pSTAT4/IL-12 IC50. The method, boiled down:
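p-STAT4 (Tyr693) in lysates was measured by AlphaLISA SureFire Ultra after a 30 min IL-12 challenge (40 ng/ml final) at 37° C. Overnight-starved, IL-2-free NK-92 cells had been pretreated 1 h with compound at 10000 to 0.61 nM (4-fold, 8 points). IC50 values came from four-parameter logistic fitting.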

In another assay the test system is pSTAT5/GM-CSF. In words: pSTAT5/GM-CSF cellular assay (JAK2 selectivity). Format: cell-based. As to conditions: for Selectivity fold (TYK2/JAK2): pSTAT5/GM-CSF IC50 over pSTAT4/IL-12 IC50.

T1 sequence (P29597 575-869): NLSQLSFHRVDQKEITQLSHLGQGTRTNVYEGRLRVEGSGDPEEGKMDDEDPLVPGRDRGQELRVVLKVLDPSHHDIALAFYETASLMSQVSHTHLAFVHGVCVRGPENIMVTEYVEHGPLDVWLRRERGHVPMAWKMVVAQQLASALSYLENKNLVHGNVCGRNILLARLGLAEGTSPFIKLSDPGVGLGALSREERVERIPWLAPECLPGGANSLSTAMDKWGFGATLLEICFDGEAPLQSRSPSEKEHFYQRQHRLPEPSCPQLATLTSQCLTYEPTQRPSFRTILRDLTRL

As for `CC(=O)Nc1cc(Nc2cc(OCC3CC3)cc(S(C)(=O)=O)n2)c(-c2ccn(C)n2)cn1` [Example J3, N-(4-((4-(cyclopropylmethoxy)-6-(methylsulfonyl)pyridin-2-yl)amino)-5-(1-methyl-1H-pyrazol-3-yl)pyridin-2-yl)acetamide], the values for the pIC50 (in assay [1]; in assay [2]; in the assay on pSTAT5/GM-CSF) were 10.59, 9.54 and under 5.00, respectively. Besides, the “Selectivity fold (TYK2/JAK2)” value with pSTAT5/GM-CSF is over 34965 fold.
The like results for `CC(=O)Nc1cc(Nc2cc(OC(C)C)cc(S(C)(=O)=O)n2)c(-c2ccn([C@@H]3CCOC3)n2)cn1` [Example M34, (R)-N-(4-((4-isopropoxy-6-(methylsulfonyl)pyridin-2-yl)amino)-5-(1-(tetrahydrofuran-3-yl)-1H-pyrazol-3-yl)pyridin-2-yl)acetamide] were, in that order, 10.62, 9.40, under 5.00 and over 24875 fold.
For the molecule `COCCOc1cc(Nc2cc(NC(C)=O)ncc2-c2ccc(C(F)(F)F)cn2)nc(S(C)(=O)=O)c1` [Example F11, N-(4′-((4-(2-methoxyethoxy)-6-(methylsulfonyl)pyridin-2-yl)amino)-5-(trifluoromethyl)-[2,3′-bipyridin]-6′-yl)acetamidecarboxamide], the pIC50 in assay [1] is 10.43; in assay [2] it was 9.15; with pSTAT5/GM-CSF, under 5.00. Further, the “Selectivity fold (TYK2/JAK2)” value in assay [2] is recorded as over 14184 fold.
On to `COc1cc(S(C)(=O)=O)nc(Nc2cc(NC(C)=O)ncc2-c2ccc(F)cn2)c1OC` [Example F23, N-(4′-((3,4-dimethoxy-6-(methylsulfonyl)pyridin-2-yl)amino)-5-fluoro-[2,3′-bipyridin]-6′-yl)acetamide], for which the pIC50 in assay [1] is 10.70; in assay [2] it was 8.97; in the assay with pSTAT5/GM-CSF, under 5.00. The “Selectivity fold (TYK2/JAK2)” value in assay [2] is on record as over 9345 fold.
On to `CC(=O)Nc1cc(Nc2cc(OCC3COC3)cc(S(C)(=O)=O)n2)c(-c2ccn(C)n2)cn1` [Example J25, N-(5-(1-methyl-1H-pyrazol-3-yl)-4-((6-(methylsulfonyl)-4-(oxetan-3-ylmethoxy)pyridin-2-yl)amino)pyridin-2-yl)acetamide], for which the pIC50 in assay [1] was 10.60; in assay [2] it was 8.54; with pSTAT5/GM-CSF, under 5.00. The “Selectivity fold (TYK2/JAK2)” value with pSTAT5/GM-CSF is on record as over 3436 fold.
For `CC(=O)Nc1cc(Nc2cc(OC(C)C)cc(S(C)(=O)=O)n2)c(-c2ccn(C)n2)cn1` [Example J2, N-(4-((4-isopropoxy-6-(methylsulfonyl)pyridin-2-yl)amino)-5-(1-methyl-1H-pyrazol-3-yl)pyridin-2-yl)acetamide], in that order: 10.66, 8.52, under 5.00 and over 3333 fold.
For `CCOc1cc(Nc2cc(NC(C)=O)ncc2-c2ccn(C)n2)nc(S(C)(=O)=O)c1` [Example J43, N-(4-((4-ethoxy-6-(methylsulfonyl)pyridin-2-yl)amino)-5-(1-methyl-1H-pyrazol-3-yl)pyridin-2-yl)acetamide], in that order: 10.60, 9.13, under 5.00 and over 13440 fold.
On to `CC(=O)Nc1cc(Nc2cc(C#N)cc(S(C)(=O)=O)n2)c(-c2ccc(C(C)(C)O)cn2)cn1` [Example H14, N-(4′-((4-cyano-6-(methylsulfonyl)pyridin-2-yl)amino)-5-(2-hydroxypropan-2-yl)-[2,3′-bipyridin]-6′-yl)acetamide], for which the pIC50 was 10.47 in assay [1], 9.14 in assay [2] and under 5.00 with pSTAT5/GM-CSF. Further, the “Selectivity fold (TYK2/JAK2)” value in assay [2] is reported as over 13755 fold.
The like results for `CC(=O)Nc1cc(Nc2cc(OC(C)C)cc(S(C)(=O)=O)n2)c(-c2ccc(C(F)(F)F)cn2)cn1` [Example F9, N-(4′-((4-isopropoxy-6-(methylsulfonyl)pyridin-2-yl)amino)-5-(trifluoromethyl)-[2,3′-bipyridin]-6′-yl)acetamide] were, in that order, 10.22, 8.26, under 5.00 and over 1834 fold.
Take `CC(=O)Nc1cc(Nc2cc(-c3cscn3)cc(S(C)(=O)=O)n2)c(-c2ccc3c(n2)OCC(C)(C)O3)cn1` [Example Q119, N-(5-(2,2-dimethyl-2,3-dihydro-[1,4]dioxino[2,3-b]pyridin-6-yl)-4-((6-(methylsulfonyl)-4-(thiazol-4-yl)pyridin-2-yl)amino)pyridin-2-yl)acetamide]: the pIC50 in assay [1] was 10.51; in assay [2] it was 8.92; with pSTAT5/GM-CSF, 5.94. Also, the “Selectivity fold (TYK2/JAK2)” value with pSTAT5/GM-CSF is listed as 965 fold.
The like results for `CC(=O)Nc1cc(Nc2cc(OC3CC3)cc(S(C)(=O)=O)c2)c(-c2ccn(C)n2)cn1` [Example J36, N-(4-((3-cyclopropoxy-5-(methylsulfonyl)phenyl)amino)-5-(1-methyl-1H-pyrazol-3-yl)pyridin-2-yl)acetamide] were, in that order, 10.37, 8.30, under 5.00 and over 1980 fold.
Regarding `CC(=O)Nc1cc(Nc2cc(OC[C@H](C)O)cc(S(C)(=O)=O)n2)c(-c2ccc(C(F)(F)F)cn2)cn1` [Example F21, (S)-N-(4′-((4-(2-hydroxypropoxy)-6-(methylsulfonyl)pyridin-2-yl)amino)-5-(trifluoromethyl)-[2,3′-bipyridin]-6′-yl)acetamide], the pIC50 is 10.59 in assay [1], 8.45 in assay [2] and under 5.00 with pSTAT5/GM-CSF. The “Selectivity fold (TYK2/JAK2)” value in assay [2] is listed as over 2814 fold.
Turning to `CCn1ccc(-c2cnc(NC(C)=O)cc2Nc2cc(OC)cc(S(C)(=O)=O)c2)n1` [Example M9, N-(5-(1-ethyl-1H-pyrazol-3-yl)-4-((3-methoxy-5-(methylsulfonyl)phenyl)amino)pyridin-2-yl)acetamide], the pIC50 is 10.46 in assay [1], 8.15 in assay [2] and under 5.00 with pSTAT5/GM-CSF. Also, the “Selectivity fold (TYK2/JAK2)” value in the assay with pSTAT5/GM-CSF is on record as over 1416 fold.
For `CC(=O)Nc1cc(Nc2cc(O[C@H]3C[C@@H](O)C3)cc(S(C)(=O)=O)n2)c(-c2ccn(C)n2)cn1` [Example J17, N-(4-((4-((cis)-3-hydroxycyclobutoxy)-6-(methylsulfonyl)pyridin-2-yl)amino)-5-(1-methyl-1H-pyrazol-3-yl)pyridin-2-yl)acetamide], in that order: 10.37, 8.17, under 5.00 and over 1470 fold.
The like results for `CCS(=O)(=O)c1cccc(Nc2cc(NC(C)=O)ncc2-c2ccn(C)n2)n1` [Example J5, N-(4-((6-(ethylsulfonyl)pyridin-2-yl)amino)-5-(1-methyl-1H-pyrazol-3-yl)pyridin-2-yl)acetamide] were, in that order, 10.66, 8.69, under 5.00 and over 4878 fold.
Regarding `CCOc1cc(Nc2cc(NC(C)=O)ncc2-c2ccc(OCCOC)cn2)nc(S(C)(=O)=O)c1` [Example D9, N-(4′-((4-ethoxy-6-(methylsulfonyl)pyridin-2-yl)amino)-5-(2-methoxyethoxy)-[2,3′-bipyridin]-6′-yl)acetamide], the figures for the pIC50 (in assay [1]; in assay [2]; in the assay on pSTAT5/GM-CSF) were 10.68, 9.32 and under 5.00, respectively. Moreover, the “Selectivity fold (TYK2/JAK2)” value in assay [2] is on record as over 20876 fold.
For `CC(=O)Nc1cc(Nc2cc(OC3COC3)cc(S(C)(=O)=O)n2)c(-c2ccc(C(C)(C)O)cn2)cn1` [Example H27, N-(5-(2-hydroxypropan-2-yl)-4′-((6-(methylsulfonyl)-4-(oxetan-3-yloxy)pyridin-2-yl)amino)-[2,3′-bipyridin]-6′-yl)acetamide], in that order: 10.51, 8.57, under 5.00 and over 3676 fold.
On to `COCC1CCN(c2cc(Nc3cc(NC(C)=O)ncc3-c3ccc4c(n3)OCC(C)(C)O4)nc(S(C)(=O)=O)c2)C1` (centres unmarked) [Example Q73, N-(5-(2,2-dimethyl-2,3-dihydro-[1,4]dioxino[2,3-b]pyridin-6-yl)-4-((4-(3-(methoxymethyl)pyrrolidin-1-yl)-6-(methylsulfonyl)pyridin-2-yl)amino)pyridin-2-yl)acetamide], for which the pIC50 in assay [1] is 10.60; in assay [2] it was 8.55; in the assay with pSTAT5/GM-CSF, 5.63. The “Selectivity fold (TYK2/JAK2)” value in the assay on pSTAT5/GM-CSF was 828 fold.
For `CC(=O)Nc1cc(Nc2cccc(S(C)(=O)=O)n2)c(-c2ccn(C(C)C)n2)cn1` [Example M22, N-(5-(1-isopropyl-1H-pyrazol-3-yl)-4-((6-(methylsulfonyl)pyridin-2-yl)amino)pyridin-2-yl)acetamide], in that order: 10.57, 9.50, 6.27 and 1683 fold.
The like results for `CC(=O)Nc1cc(Nc2cc(OC[C@@H](C)O)cc(S(C)(=O)=O)c2)c(-c2ccn(C)n2)cn1` [Example J57, (R)-N-(4-((3-(2-hydroxypropoxy)-5-(methylsulfonyl)phenyl)amino)-5-(1-methyl-1H-pyrazol-3-yl)pyridin-2-yl)acetamide] were, in that order, 10.35, 7.82, under 5.00 and over 653 fold.
